Assay results taken from patent US12060347B2 (BRISTOL-MYERS SQUIBB COMPANY, priority 2016, dated 2024).

The compounds below were run against T1, human PAR4 (Homo sapiens, UniProt Q96RI0) (assay: PAR4 FLIPR assay: antagonism of agonist-peptide-induced calcium mobilization in PAR4-expressing HEK293 cells). Conditions: H-Ala-Phe(4-F)-[…]NH2-induced intracellular calcium mobilization, 11-point curves.
T1 construct: expressed in transfected cells; host or cells: HEK293 PAR4 Clone 1.2A (BMS Arctic ID 383940)
T1 sequence (Q96RI0 18-385): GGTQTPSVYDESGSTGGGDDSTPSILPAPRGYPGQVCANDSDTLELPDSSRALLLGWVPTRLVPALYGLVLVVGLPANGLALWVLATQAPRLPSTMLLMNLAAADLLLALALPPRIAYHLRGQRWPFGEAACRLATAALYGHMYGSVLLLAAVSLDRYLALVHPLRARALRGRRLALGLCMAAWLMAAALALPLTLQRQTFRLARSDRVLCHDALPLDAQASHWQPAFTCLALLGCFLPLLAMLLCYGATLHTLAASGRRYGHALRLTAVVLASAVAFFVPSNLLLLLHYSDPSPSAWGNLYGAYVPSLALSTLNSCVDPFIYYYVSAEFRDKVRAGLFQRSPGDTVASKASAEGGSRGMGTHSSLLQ
Type: cell-based

| IC50 | SMILES |
| --- | --- |
| 130 nM | COc1cnc2c(-c3nc4c(Cl)c(F)c(OC[C@@H](C)OC(=O)OCc5ccc(N)cn5)cc4s3)cc(C)cc2n1 [Example 596, (R)-(5-aminopyridin-2-yl)methyl (1-((4-chloro-5-fluoro-2-(2-methoxy-7-methylquinoxalin-5-yl)benzo[d]thiazol-6-yl)oxy)propan-2-yl) carbonate] |
| 15 nM | COc1cnc2c(-c3nc4cc(F)c(OC[C@@H](C)OC(=O)Nc5cnc(N(C)C)nc5)cc4s3)cc(C)cc2n1 [Example 597, (R)-1-((5-fluoro-2-(2-methoxy-7-methylquinoxalin-5-yl)benzo[d]thiazol-6-yl)oxy)propan-2-yl (2-(dimethylamino)pyrimidin-5-yl)carbamate] |
| 3.7 nM | COc1cnc2c(-c3nc4cc(F)c(O[C@@H](C)[C@@H](C)OC(=O)Nc5cnc(N(C)C)nc5)cc4s3)cc(C)cc2n1 [Example 598, (2R,3S)-3-((5-fluoro-2-(2-methoxy-7-methylquinoxalin-5-yl)benzo[d]thiazol-6-yl)oxy)butan-2-yl (2-(dimethylamino)pyrimidin-5-yl)carbamate] |
| 5.6 nM | COc1cnc2c(-c3nc4cc(F)c(O[C@@H](C)[C@@H](C)OC(=O)Nc5ccc(N(C)C)nc5)cc4s3)cc(C)cc2n1 [Example 599, (2R,3S)-3-((5-fluoro-2-(2-methoxy-7-methylquinoxalin-5-yl)benzo[d]thiazol-6-yl)oxy)butan-2-yl (6-(dimethylamino)pyridin-3-yl)carbamate] |
| 2.4 nM | COc1cnc2c(-c3nc4cc(F)c(O[C@@H](C)[C@@H](C)OC(=O)Nc5ccc(N6CCOC6=O)nc5)cc4s3)cc(C)cc2n1 [Example 600, (2R,3S)-3-((5-fluoro-2-(2-methoxy-7-methylquinoxalin-5-yl)benzo[d]thiazol-6-yl)oxy)butan-2-yl (6-(2-oxooxazolidin-3-yl)pyridin-3-yl)carbamate] |
| 3.5 nM | COc1cnc2c(-c3nc4cc(F)c(O[C@@H](C)[C@@H](C)OC(=O)Nc5ccc(NC(C)=O)nc5)cc4s3)cc(C)cc2n1 [Example 601, (2R,3S)-3-((5-fluoro-2-(2-methoxy-7-methylquinoxalin-5-yl)benzo[d]thiazol-6-yl)oxy)butan-2-yl (6-acetamidopyridin-3-yl)carbamate] |
| 6.4 nM | COc1cnc2c(-c3nc4cc(F)c(O[C@@H](C)[C@@H](C)OC(=O)Nc5ccc(N)nc5)cc4s3)cc(C)cc2n1 [Example 602, (2R,3S)-3-((5-fluoro-2-(2-methoxy-7-methylquinoxalin-5-yl)benzo[d]thiazol-6-yl)oxy)butan-2-yl (6-aminopyridin-3-yl)carbamate] |
| 2.1 nM | COc1cnc2c(-c3nc4cc(F)c(O[C@@H](C)[C@@H](C)OC(=O)Nc5ccc(N6CCOCC6)nc5)cc4s3)cc(C)cc2n1 [Example 603, (2R,3S)-3-((5-fluoro-2-(2-methoxy-7-methylquinoxalin-5-yl)benzo[d]thiazol-6-yl)oxy)butan-2-yl (6-morpholinopyridin-3-yl)carbamate] |
| 17 nM | COc1cnc2c(-c3nc4cc(F)c(O[C@@H](C)[C@@H](C)OC(=O)Nc5cnc(NC(=O)c6ccc(F)c(Cl)c6)nc5)cc4s3)cc(C)cc2n1 [Example 604, (2R,3S)-3-((5-fluoro-2-(2-methoxy-7-methylquinoxalin-5-yl)benzo[d]thiazol-6-yl)oxy)butan-2-yl (2-(3-chloro-4-fluorobenzamido)pyrimidin-5-yl)carbamate] |
| 0.7 nM | COc1cnc2c(-c3nc4cc(F)c(O[C@@H](C)[C@@H](C)OC(=O)Nc5ccc(N6CCCC6)nc5)cc4s3)cc(C)cc2n1 [Example 605, (2R,3S)-3-((5-fluoro-2-(2-methoxy-7-methylquinoxalin-5-yl)benzo[d]thiazol-6-yl)oxy)butan-2-yl (6-(pyrrolidin-1-yl)pyridin-3-yl)carbamate] |
| 0.4 nM | COc1cnc2c(-c3nc4cc(F)c(O[C@@H](C)[C@@H](C)OC(=O)Nc5cnc(NCC(C)(C)O)nc5)cc4s3)cc(C)cc2n1 [Example 606, (2R,3S)-3-((5-fluoro-2-(2-methoxy-7-methylquinoxalin-5-yl)benzo[d]thiazol-6-yl)oxy)butan-2-yl (2-((2-hydroxy-2-methylpropyl)amino)pyrimidin-5-yl)carbamate] |
| 0.2 nM | COc1cnc2c(-c3nc4cc(F)c(O[C@@H](C)[C@@H](C)OC(=O)Nc5cnc(N(C)S(C)(=O)=O)nc5)cc4s3)cc(C)cc2n1 [Example 607, (2R,3S)-3-((5-fluoro-2-(2-methoxy-7-methylquinoxalin-5-yl)benzo[d]thiazol-6-yl)oxy)butan-2-yl (2-(N-methylmethylsulfonamido)pyrimidin-5-yl)carbamate] |
| 0.5 nM | COc1cnc2c(-c3nc4cc(F)c(O[C@@H](C)[C@@H](C)OC(=O)Nc5cnc(N6CCOCC6)nc5)cc4s3)cc(C)cc2n1 [Example 608, (2R,3S)-3-((5-fluoro-2-(2-methoxy-7-methylquinoxalin-5-yl)benzo[d]thiazol-6-yl)oxy)butan-2-yl (2-morpholinopyrimidin-5-yl)carbamate] |
| 1.9 nM | COc1cnc2c(-c3nc4cc(F)c(OC[C@@H](C)OC(=O)Nc5ccc(N6CCOC6=O)nc5)cc4s3)cc(C)cc2n1 [Example 609, (R)-1-((5-fluoro-2-(2-methoxy-7-methylquinoxalin-5-yl)benzo[d]thiazol-6-yl)oxy)propan-2-yl (6-(2-oxooxazolidin-3-yl)pyridin-3-yl)carbamate] |
| 4.3 nM | COc1cnc2c(-c3nc4cc(F)c(OC[C@@H](C)OC(=O)Nc5ccc(NC(C)=O)nc5)cc4s3)cc(C)cc2n1 [Example 610, (R)-1-((5-fluoro-2-(2-methoxy-7-methylquinoxalin-5-yl)benzo[d]thiazol-6-yl)oxy)propan-2-yl (6-acetamidopyridin-3-yl)carbamate] |
| 2.1 nM | COc1cnc2c(-c3nc4cc(F)c(OC[C@@H](C)OC(=O)Nc5cncc(CO)c5)cc4s3)cc(C)cc2n1 [Example 611, (R)-1-((5-fluoro-2-(2-methoxy-7-methylquinoxalin-5-yl)benzo[d]thiazol-6-yl)oxy)propan-2-yl (5-(hydroxymethyl)pyridin-3-yl)carbamate] |
| 65 nM | Cc1cc(-c2nc3cc(F)c(O[C@@H](C)[C@@H](C)OC(=O)Nc4cnc(C)nc4)cc3s2)c2ncc(C(N)=O)nc2c1 [Example 613, (2R,3S)-3-((2-(2-carbamoyl-7-methylquinoxalin-5-yl)-5-fluorobenzo[d]thiazol-6-yl)oxy)butan-2-yl (2-methylpyrimidin-5-yl)carbamate] |
| 30 nM | CNC(=O)c1cnc2c(-c3nc4cc(F)c(O[C@@H](C)[C@@H](C)OC(=O)Nc5cnc(C)nc5)cc4s3)cc(C)cc2n1 [Example 614, (2R,3S)-3-((5-fluoro-2-(7-methyl-2-(methylcarbamoyl)quinoxalin-5-yl)benzo[d]thiazol-6-yl)oxy)butan-2-yl (2-methylpyrimidin-5-yl)carbamate] |
| 870 nM | Cc1cc(-c2nc3cc(F)c(O[C@@H](C)[C@@H](C)OC(=O)Nc4cnc(C)nc4)cc3s2)c2ncc(C(=O)N(C)C)nc2c1 [Example 615, (2R,3S)-3-((2-(2-(dimethylcarbamoyl)-7-methylquinoxalin-5-yl)-5-fluorobenzo[d]thiazol-6-yl)oxy)butan-2-yl (2-methylpyrimidin-5-yl)carbamate] |
| 4200 nM | Cc1cc(-c2nc3cc(F)c(O[C@@H](C)[C@@H](C)OC(=O)Nc4cnc(C)nc4)cc3s2)c2ncc(C(=O)NCCO)nc2c1 [Example 616, (2R,3S)-3-((5-fluoro-2-(2-((2-hydroxyethyl)carbamoyl)-7-methylquinoxalin-5-yl)benzo[d]thiazol-6-yl)oxy)butan-2-yl (2-methylpyrimidin-5-yl)carbamate] |
| 8 nM | COc1cnc2c(-c3nc4c(Cl)c(F)c(OCCOC(=O)Nc5ccns5)cc4s3)cc(C)cc2n1 [Example 621, 2-((4-chloro-5-fluoro-2-(2-methoxy-7-methylquinoxalin-5-yl)benzo[d]thiazol-6-yl)oxy)ethyl isothiazol-5-ylcarbamate] |
| 350 nM | COc1cnc2c(-c3nc4c(Cl)c(F)c(OC[C@H]5CNC(=O)O5)cc4s3)cc(C)cc2n1 [Example 622, (R)-5-(((4-chloro-5-fluoro-2-(2-methoxy-7-methylquinoxalin-5-yl)benzo[d]thiazol-6-yl)oxy)methyl)oxazolidin-2-one] |
| 320 nM | COc1cnc2c(-c3nc4c(Cl)c(F)c(OCc5coc(N)n5)cc4s3)cc(C)cc2n1 [Example 623, 4-(((4-chloro-5-fluoro-2-(2-methoxy-7-methylquinoxalin-5-yl)benzo[d]thiazol-6-yl)oxy)methyl)oxazol-2-amine] |
| 0.7 nM | CCOc1cnc2c(-c3nc4cc(F)c(O[C@@H](C)[C@@H](C)OC(=O)Nc5cnc(CCOP(=O)(O)O)nc5)cc4s3)cc(C)cc2n1 [Example 624, (2R,3S)-3-((2-(2-ethoxy-7-methylquinoxalin-5-yl)-5-fluorobenzo[d]thiazol-6-yl)oxy)butan-2-yl (2-(2-(phosphonooxy)ethyl)pyrimidin-5-yl)carbamate] |
| 1.8 nM | COCc1cnc2c(-c3nc4c(C)cc(OC)cc4s3)cc(Cl)cc2c1 [Example 625, 2-(6-chloro-3-(methoxymethyl)quinolin-8-yl)-6-methoxy-4-methylbenzo[d]thiazole] |
| 7.2 nM | COc1cnc2c(-c3nc4c(C)cc(OC)cc4s3)cc(Cl)cc2c1 [Example 626, 2-(6-chloro-3-methoxyquinolin-8-yl)-6-methoxy-4-methylbenzo[d]thiazole] |
| 1400 nM | COc1cc(C(C)(C)O)c2nc(-c3cc(C)cc4nc(OC)cnc34)sc2c1 [Example 627, 2-(6-methoxy-2-(2-methoxy-7-methylquinoxalin-5-yl)benzo[d]thiazol-4-yl)propan-2-ol] |
